By AUC is commonly meant concentration integrated over time. As a reminder, the MBC is the lowest tested concentration that kills the bacteria rather than only halting them. Broadly, the MIC is the smallest concentration in the dilution series that meets the test's criterion for growth inhibition. In general, Cmax refers to the peak of the concentration-time curve.

Series [1] in a line: AUC in New Zealand rabbit osteomyelitis model at 40 mg/kg, sc administered every 6 hrs for 4 days. On the set-up: dose 40 mg/kg, route subcutaneous. Type of series: ADME, organism-based, Oryctolagus cuniculus. Conditions: in vivo.
Series [2] concerns Oryctolagus cuniculus. Kind of series: Toxicity in methicillin-resistant Staphylococcus aureus-infected New Zealand rabbit osteomyelitis model assessed as body weight at 60 mg/kg, po administered every 8 hrs for 4 weeks measured on week 4 postinfection (reference value: 2.43 +/- 0.15 kg). Conditions: in vivo.
The subject of series [3] is Staphylococcus aureus. Nature of the series: Antimicrobial activity against Staphylococcus aureus 168-1 isolated from osteomyelitis patient by broth macrodilution method. Type of series: functional.
Series [4] can be described thus: AUC in methicillin-resistant Staphylococcus aureus-infected New Zealand rabbit osteomyelitis model at 60 mg/kg, po after 24 hrs. Type of series: ADME, organism-based, Oryctolagus cuniculus. Details: time < 24 hr, dose 60 mg/kg, route oral. Conditions: in vivo.
The subject of series [5] is Staphylococcus aureus. Nature of the series: Antimicrobial activity against methicillin-resistant Staphylococcus aureus infected in New Zealand rabbit osteomyelitis model assessed as improvement in extent of bone remodeling at 60 mg/kg, po administered every 8 hrs for 4 weeks measured on week 8 postinfection radiographic analysis. It counts as functional, organism-based. Details: dose 60 mg/kg.

Series [6] relates to Oryctolagus cuniculus. Kind of series: Toxicity in methicillin-resistant Staphylococcus aureus-infected New Zealand rabbit osteomyelitis model assessed as body weight at 60 mg/kg, po administered every 8 hrs for 4 weeks measured on week 6 postinfection (reference value: 2.43 +/- 0.15 kg). Conditions: in vivo.
The subject of series [7] is Staphylococcus aureus. Kind of series: Antimicrobial activity against methicillin-resistant Staphylococcus aureus infected in New Zealand rabbit osteomyelitis model assessed as improvement in rate of bone reconstruction at 60 mg/kg, po administered every 8 hrs for 4 weeks measured on week 8 postinfection radiographic analysis. It counts as functional, organism-based. Details: dose 60 mg/kg.

In series [8] the test system is Staphylococcus aureus. Nature of the series: Antimicrobial activity against methicillin-resistant Staphylococcus aureus infected in New Zealand rabbit osteomyelitis model assessed as bacterial count per gram of tibial marrow at 60 mg/kg, po administered every 8 hrs for 4 weeks measured on week 8 postinfection (reference value: 1.04 +/- 2.63 CFU/g). Type of series: functional, organism-based. Details: dose 60 mg/kg.

A short description of series [9]: Cmax in New Zealand rabbit osteomyelitis model at 40 mg/kg, sc administered every 6 hrs for 4 days. Type of series: ADME, organism-based, Oryctolagus cuniculus. Details: dose 40 mg/kg, route subcutaneous. The settings on record: in vivo.
Series [10] relates to Staphylococcus aureus. Nature of the series: Antimicrobial activity against methicillin-resistant Staphylococcus aureus infected in New Zealand rabbit osteomyelitis model assessed as improvement in extent of bone remodeling at 60 mg/kg, po administered every 8 hrs for 4 weeks measured on week 2 postinfection radiographic analysis. It counts as functional, organism-based. On the set-up: dose 60 mg/kg.

Series [11] deals with Oryctolagus cuniculus. Kind of series: Cmin in New Zealand rabbit at 20 mg/kg, sc administered every 6 hrs for 4 days measured after 1 hr post first dose by RP-HPLC/MS/MS. The settings on record: in vivo, 1 h. It counts as ADME, organism-based. Details: dose 20 mg/kg, route subcutaneous.
The subject of series [12] is Oryctolagus cuniculus. Nature of the series: Toxicity in methicillin-resistant Staphylococcus aureus-infected New Zealand rabbit osteomyelitis model assessed as body weight at 60 mg/kg, po administered every 8 hrs for 4 weeks measured on week 8 postinfection (reference value: 2.43 +/- 0.15 kg). The settings on record: in vivo.
Series [13] relates to Staphylococcus aureus. Nature of the series: Antimicrobial activity against methicillin-resistant Staphylococcus aureus infected in New Zealand rabbit osteomyelitis model assessed as improvement in extent of bone remodeling at 60 mg/kg, po administered every 8 hrs for 4 weeks measured on week 6 postinfection radiographic analysis. It counts as functional, organism-based. On the set-up: dose 60 mg/kg.

Series [14] relates to Staphylococcus aureus. Nature of the series: Antimicrobial activity against methicillin-resistant Staphylococcus aureus infected in New Zealand rabbit osteomyelitis model assessed as improvement in rate of bone reconstruction at 60 mg/kg, po administered every 8 hrs for 4 weeks measured on week 6 postinfection radiographic analysis. Details: dose 60 mg/kg. Type of series: functional, organism-based.

Series [15] deals with Staphylococcus aureus. Kind of series: Antimicrobial activity against methicillin-resistant Staphylococcus aureus infected in New Zealand rabbit osteomyelitis model assessed as bacterial count per gram of tibial matrix at 60 mg/kg, po administered every 8 hrs for 4 weeks measured on week 8 postinfection (reference value: 1.04 +/- 2.63 CFU/g). It counts as functional, organism-based. Details: dose 60 mg/kg.

In series [16] the test system is Oryctolagus cuniculus. Kind of series: Toxicity in methicillin-resistant Staphylococcus aureus-infected New Zealand rabbit osteomyelitis model assessed as body weight at 60 mg/kg, po administered every 8 hrs for 4 weeks measured on week 2 postinfection (reference value: 2.43 +/- 0.15 kg). Conditions: in vivo.
Series [17] can be described thus: Ratio of AUC to MIC in methicillin-resistant Staphylococcus aureus infected New Zealand rabbit model osteomyelitis at 30 mg/kg, sc administered every 12 hrs for 4 weeks. Type of series: functional. The settings on record: route subcutaneous.
The subject of series [18] is Staphylococcus aureus. Kind of series: Antimicrobial activity against methicillin-resistant Staphylococcus aureus infected in New Zealand rabbit osteomyelitis model assessed as bacterial count per gram of tibial matrix at 30 mg/kg, sc administered every 12 hrs for 4 weeks measured on week 8 postinfection (reference value: 1.04 +/- 2.63 CFU/g). It counts as functional. Conditions: route subcutaneous.

Series [19] deals with Staphylococcus aureus. Nature of the series: Antimicrobial activity against methicillin-resistant Staphylococcus aureus infected in New Zealand rabbit osteomyelitis model assessed as bacterial count per gram of tibial marrow at 30 mg/kg, sc administered every 12 hrs for 4 weeks measured on week 8 postinfection (reference value: 1.12 +/- 10^9 CFU/g). It counts as functional. Conditions: route subcutaneous.

Series [20] relates to Staphylococcus aureus. Nature of the series: Antimicrobial activity against methicillin-resistant Staphylococcus aureus infected in New Zealand rabbit osteomyelitis model assessed as improvement in rate of bone reconstruction at 30 mg/kg, sc administered every 12 hrs for 4 weeks measured on week 2 postinfection radiographic analysis. It counts as functional, organism-based. On the set-up: dose 30 mg/kg.

In series [21] the test system is Staphylococcus aureus. Kind of series: Antimicrobial activity against methicillin-resistant Staphylococcus aureus infected in New Zealand rabbit osteomyelitis model assessed as improvement in rate of bone reconstruction at 30 mg/kg, sc administered every 12 hrs for 4 weeks measured on week 6 postinfection radiographic analysis. Type of series: functional, organism-based. On the set-up: dose 30 mg/kg.

Series [22] deals with Staphylococcus aureus. Nature of the series: Antimicrobial activity against methicillin-resistant Staphylococcus aureus infected in New Zealand rabbit osteomyelitis model assessed as improvement in extent of bone remodeling at 30 mg/kg, sc administered every 12 hrs for 4 weeks measured on week 6 postinfection radiographic analysis. It counts as functional, organism-based. Details: dose 30 mg/kg.

Series [23] relates to Staphylococcus aureus. Kind of series: Antimicrobial activity against methicillin-resistant Staphylococcus aureus infected in New Zealand rabbit osteomyelitis model assessed as improvement in rate of bone reconstruction at 30 mg/kg, sc administered every 12 hrs for 4 weeks measured on week 8 postinfection radiographic analysis. Details: dose 30 mg/kg. Type of series: functional, organism-based.

In series [24] the test system is Staphylococcus aureus. Nature of the series: Antimicrobial activity against methicillin-resistant Staphylococcus aureus infected in New Zealand rabbit osteomyelitis model assessed as improvement in extent of bone remodeling at 30 mg/kg, sc administered every 12 hrs for 4 weeks measured on week 2 postinfection radiographic analysis. It counts as functional, organism-based. On the set-up: dose 30 mg/kg.

Structures are written as SMILES. In brackets after ≈: the same amount, converted by molar mass. Activity calls are given as the source filed them.

In the case of `CC(=O)NC[C@H]1CN(c2ccc(N3CCOCC3)c(F)c2)C(=O)O1` [LINEZOLID], the AUC in series [1] turned out to be 173 µg·h/mL. The Activity was determined as 2.44 kg in series [2], 2.36 kg in series [6], 2.42 kg in [12] and 2.35 kg in series [16]. This molecule also registered an MBC in series [3] of 12.5 µg/mL (≈ 37.1 µM). This molecule also displayed an MIC in [3] of 1.56 µg/mL (≈ 4.62 µM). The AUC at 24 h in [4] came out at 334 µg·h/mL. The result in series [5], in [7], in [8], in [10], in series [13] and in series [14] was Active. Further, in [15], the outcome was Active. Moreover, the Cmax in [9] came out at 27200 ng/mL. The molecule also displayed a CFU in [11] of 0.18 ×10⁷ /g.
In [1], `CN[C@H](CC(C)C)C(=O)N[C@H]1C(=O)N[C@@H](CC(N)=O)C(=O)N[C@H]2C(=O)N[C@H]3C(=O)N[C@H](C(=O)N[C@H](C(=O)O)c4cc(O)cc(O)c4-c4cc3ccc4O)[C@H](O)c3ccc(c(Cl)c3)Oc3cc2cc(c3O[C@@H]2O[C@H](CO)[C@@H](O)[C@H](O)[C@H]2O[C@H]2C[C@](C)(N)[C@H](O)[C@H](C)O2)Oc2ccc(cc2Cl)[C@H]1O` [VANCOMYCIN] registered an AUC of 58 µg·h/mL. The MBC in series [3] was found to be 6.25 µg/mL (≈ 4.31 µM). For the same molecule, 0.78 µg/mL (≈ 0.538 µM) was the least that counted as inhibitory in [3] (MIC). For the same molecule, in series [17], the RatioAUC/MIC is 148. Also, the CFU in series [18] came to 0.84 ×10⁷ /g; in series [19] it was 0.64 ×10⁹ /g. Also, the outcome in [20], in [21], in [22], in series [23] and in series [24] was Active. The same molecule displayed a Cmax in [9] of 6400 ng/mL.
